Experimental findings from article PMC3156125, “Reconstitution of the Costunolide Biosynthetic Pathway in Yeast and Nicotiana benthamiana” (PLoS ONE, 2011) are described below.

Type in all cases: cell-based
One experiment concerns the target T1, CiCOS (Cichorium intybus, UniProt G3GBK0).
T1 construct: gene CYP71BL3; full-length cDNA in pYEDP60, WAT11 yeast, co-expressed with TpGAS and CiGAO; also N. benthamiana
T1 sequence (G3GBK0 1-494): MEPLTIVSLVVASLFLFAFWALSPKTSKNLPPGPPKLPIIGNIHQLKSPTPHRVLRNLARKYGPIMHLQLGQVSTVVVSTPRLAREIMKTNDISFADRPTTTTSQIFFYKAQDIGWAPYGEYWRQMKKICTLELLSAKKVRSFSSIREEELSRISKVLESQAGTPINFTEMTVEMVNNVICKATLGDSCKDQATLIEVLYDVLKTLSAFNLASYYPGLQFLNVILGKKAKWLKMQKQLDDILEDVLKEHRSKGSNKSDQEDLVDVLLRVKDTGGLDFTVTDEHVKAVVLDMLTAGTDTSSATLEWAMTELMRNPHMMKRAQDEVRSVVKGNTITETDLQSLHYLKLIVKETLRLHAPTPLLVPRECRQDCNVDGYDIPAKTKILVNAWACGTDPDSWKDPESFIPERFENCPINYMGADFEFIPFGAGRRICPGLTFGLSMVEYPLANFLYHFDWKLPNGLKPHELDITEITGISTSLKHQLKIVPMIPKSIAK
Kind of experiment: yeast co-expression, GC-MS and UPLC-MRM-MS. To be noted: WAT11 yeast with TpGAS and CiGAO; substrate formed in situ; HEPES or MOPS pH 7.5, 30 °C; also N. benthamiana transient expression.

Experiment [1] has as its target T2, CiGAO (Cichorium intybus, UniProt D5JBW8).
T2 construct: cDNA from chicory library, no terminal tags, pESC-Trp in WAT11 yeast with TpGAS
T2 sequence (D5JBW8 1-488): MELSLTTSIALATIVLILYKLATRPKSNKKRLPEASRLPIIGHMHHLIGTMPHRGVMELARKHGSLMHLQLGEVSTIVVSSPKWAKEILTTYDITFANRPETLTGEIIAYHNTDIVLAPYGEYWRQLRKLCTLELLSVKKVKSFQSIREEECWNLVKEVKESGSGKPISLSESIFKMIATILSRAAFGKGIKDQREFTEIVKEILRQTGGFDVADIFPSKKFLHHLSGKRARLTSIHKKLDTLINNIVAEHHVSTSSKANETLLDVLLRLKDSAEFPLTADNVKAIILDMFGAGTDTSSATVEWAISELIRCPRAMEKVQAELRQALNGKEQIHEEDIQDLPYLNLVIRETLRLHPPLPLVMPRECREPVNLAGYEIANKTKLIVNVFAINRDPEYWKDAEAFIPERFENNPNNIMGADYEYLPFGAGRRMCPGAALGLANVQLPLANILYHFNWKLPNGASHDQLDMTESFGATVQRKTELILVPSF
In words: N. benthamiana co-infiltration, headspace GC-MS. To be noted: with mTpGAS; substrate formed in situ.

Another experiment deals with T3, CiGAS-l (CiGAS-long) (Cichorium intybus, UniProt Q8LSC3).
T3 sequence (Q8LSC3 1-583): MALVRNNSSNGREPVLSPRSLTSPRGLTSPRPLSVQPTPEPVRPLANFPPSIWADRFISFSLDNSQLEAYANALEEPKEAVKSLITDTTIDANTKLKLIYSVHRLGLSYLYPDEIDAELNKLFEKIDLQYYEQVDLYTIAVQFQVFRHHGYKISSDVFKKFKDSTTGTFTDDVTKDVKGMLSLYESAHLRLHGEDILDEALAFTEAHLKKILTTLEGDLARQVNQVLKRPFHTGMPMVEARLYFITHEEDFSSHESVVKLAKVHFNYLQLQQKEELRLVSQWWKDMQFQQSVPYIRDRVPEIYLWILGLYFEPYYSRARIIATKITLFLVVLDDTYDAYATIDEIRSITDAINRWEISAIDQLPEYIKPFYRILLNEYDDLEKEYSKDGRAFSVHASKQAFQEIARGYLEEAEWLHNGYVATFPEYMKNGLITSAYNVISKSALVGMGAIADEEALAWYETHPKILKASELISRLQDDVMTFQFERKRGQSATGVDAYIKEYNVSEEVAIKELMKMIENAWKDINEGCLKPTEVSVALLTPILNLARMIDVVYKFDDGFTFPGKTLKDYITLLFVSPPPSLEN
Kind of experiment: yeast culture extract, GC-MS. To be noted: endogenous farnesyl diphosphate.

In the next experiment the target is T4, TpGAS (Tanacetum parthenium, UniProt F8UL80).
T4 construct: gene GAS
T4 sequence (F8UL80 1-559): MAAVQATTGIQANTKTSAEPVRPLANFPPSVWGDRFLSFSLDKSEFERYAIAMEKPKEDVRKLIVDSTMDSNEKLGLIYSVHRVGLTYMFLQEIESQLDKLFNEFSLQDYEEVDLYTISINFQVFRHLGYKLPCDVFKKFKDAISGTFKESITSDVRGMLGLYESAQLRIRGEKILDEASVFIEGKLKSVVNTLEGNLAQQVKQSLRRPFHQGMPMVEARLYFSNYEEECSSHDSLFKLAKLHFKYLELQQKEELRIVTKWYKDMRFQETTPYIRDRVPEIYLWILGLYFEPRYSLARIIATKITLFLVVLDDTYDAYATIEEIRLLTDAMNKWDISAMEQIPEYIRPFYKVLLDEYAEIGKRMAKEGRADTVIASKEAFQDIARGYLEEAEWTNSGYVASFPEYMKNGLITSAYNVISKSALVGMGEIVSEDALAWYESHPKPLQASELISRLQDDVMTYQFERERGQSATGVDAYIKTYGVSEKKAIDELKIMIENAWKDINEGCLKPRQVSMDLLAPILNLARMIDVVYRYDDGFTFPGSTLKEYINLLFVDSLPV
Kind of experiment: yeast culture extract, GC-MS. To be noted: endogenous farnesyl diphosphate; also N. benthamiana headspace.

Experiment [2] concerns the target T2, CiGAO. Kind of experiment: yeast co-expression, GC-MS. To be noted: WAT11 yeast with TpGAS; detected as elematrien-12-oic acid after heat rearrangement.

Turning to `C=C1C(=O)O[C@@H]2/C=C(\C)CC/C=C(\C)CC[C@@H]12` [costunolide], the “yeast co-expression, GC-MS and UPLC-MRM-MS” value on CiCOS was “encodes an enzymatic activity which was able to produce costunolide”.

In the case of `C=C(C)[C@H]1C/C=C(\C)CC/C=C(\C)CC1` [germacrene A], the “N. benthamiana co-infiltration, headspace GC-MS” value on CiGAO [1] is given as “CiGAO can efficiently catalyse the conversion of the product of mTpGAS, germacrene A”. In addition, the results for the “yeast culture extract, GC-MS” value at CiGAS-l (CiGAS-long) and at TpGAS were “Germacrene A production in yeast. A yeast culture transformed by either CiGAS-long” and “yeast culture expressing TpGAS had an approximately three fold higher activity”, respectively.

For the compound `C=C(C(=O)O)[C@H]1C/C=C(\C)CC/C=C(\C)CC1` [germacra-1(10),4,11(13)-trien-12-oic acid], the “yeast co-expression, GC-MS” value at CiGAO [2] was “enzymatic activity was confirmed in our yeast system by co-expression of TpGAS and CiGAO”.
